The source of these data is patent US8137718B2, “Probiotic infant products” (Mead Johnson Nutrition Company, priority 2008, dated 2012).

In this experiment the test system is B. longum AH1205. As to the kind of experiment: Minimum inhibitory concentration (MIC) of antibiotics for the B. longum strain. The format is cell-based, Bifidobacterium longum. The following applies: against the B. longum strain AH1205. As for the experimental part:
Antibiotic sensitivity profiles of the B. longum strain were determined using the “disc susceptibility” assay. Cultures were grown in the appropriate broth medium for 24-48 hours, spread-plated (100 μl) onto agar media, and discs containing known concentrations of the antibiotics were placed onto the agar. Strains were examined for antibiotic sensitivity after 1-2 days incubation at 37° C. under anaerobic conditions. Strains were considered sensitive if zones of inhibition of 1 mm or greater were seen. The minimum inhibitory concentration (MIC) for each antibiotic was independently assessed.
In the case of `CCC[C@@H]1C[C@@H](C(=O)N[C@@H]([C@H]2O[C@H](SC)[C@H](O)[C@@H](O)[C@H]2O)[C@H](C)Cl)N(C)C1` [clindamycin], the “minimum inhibitory concentration (MIC)” value is on record as 0.032. The same measure for `Cc1ncc([N+](=O)[O-])n1CCO` [metronidazole]: more than 256; for `CN[C@H](CC(C)C)C(=O)N[C@H]1C(=O)N[C@@H](CC(N)=O)C(=O)N[C@H]2C(=O)N[C@H]3C(=O)N[C@H](C(=O)N[C@H](C(=O)O)c4cc(O)cc(O)c4-c4cc3ccc4O)[C@H](O)c3ccc(c(Cl)c3)Oc3cc2cc(c3O[C@@H]2O[C@H](CO)[C@@H](O)[C@H](O)[C@H]2O[C@H]2C[C@](C)(N)[C@H](O)[C@H](C)O2)Oc2ccc(cc2Cl)[C@H]1O` [vancomycin]: 0.75.
